{"source": "ChEMBL document CHEMBL4627413", "about": "“Targeted Delivery of Antisense Oligonucleotides Using Neurotensin Peptides” (J Med Chem, 2020)", "key": {"Sortilin": {"target": "T1, Sortilin (Homo sapiens, UniProt Q99523)", "T1 sequence (Q99523 whole entry)": "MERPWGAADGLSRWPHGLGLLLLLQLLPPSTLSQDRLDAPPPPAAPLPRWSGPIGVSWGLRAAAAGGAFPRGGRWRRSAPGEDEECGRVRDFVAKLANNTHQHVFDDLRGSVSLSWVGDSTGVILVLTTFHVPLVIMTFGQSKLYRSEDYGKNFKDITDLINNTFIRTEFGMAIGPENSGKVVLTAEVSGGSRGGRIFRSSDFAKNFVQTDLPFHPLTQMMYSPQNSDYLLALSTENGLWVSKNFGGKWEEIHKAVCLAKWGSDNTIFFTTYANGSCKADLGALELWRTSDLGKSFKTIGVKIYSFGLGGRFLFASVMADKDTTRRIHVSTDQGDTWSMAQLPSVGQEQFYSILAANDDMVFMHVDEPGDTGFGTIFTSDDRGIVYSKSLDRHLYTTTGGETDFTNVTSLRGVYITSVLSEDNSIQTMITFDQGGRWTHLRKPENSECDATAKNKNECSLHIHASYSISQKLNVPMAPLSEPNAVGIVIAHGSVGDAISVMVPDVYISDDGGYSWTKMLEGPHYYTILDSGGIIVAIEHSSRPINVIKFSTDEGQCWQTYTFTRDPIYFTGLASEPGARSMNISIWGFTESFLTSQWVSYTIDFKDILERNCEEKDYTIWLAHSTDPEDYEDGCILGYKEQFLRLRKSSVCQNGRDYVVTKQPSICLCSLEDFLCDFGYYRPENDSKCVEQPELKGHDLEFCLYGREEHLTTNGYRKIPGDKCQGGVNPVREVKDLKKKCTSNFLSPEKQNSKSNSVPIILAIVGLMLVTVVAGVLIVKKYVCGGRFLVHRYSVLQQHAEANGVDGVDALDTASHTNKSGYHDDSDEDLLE", "assay": "Substrate activity at human SORT1 expressed in HEK293 cells assessed as compound uptake incubated for 2 hrs by flow cytometry", "type": "ADME, cell-based", "conditions": "hek293, 2 h; call rule not given here"}, "[1]": {"assay": "Drug uptake in HEK293 cells incubated for 2 hrs by flow cytometry", "type": "ADME, cell-based", "conditions": "human, hek293, 2 h"}}, "data": [{"compound": "CC[C@H](C)[C@H](NC(=O)[C@H](Cc1ccc(O)cc1)NC(=O)[C@@H]1CCCN1C(=O)[C@H](CCCNC(=N)N)NC(=O)[C@H](CCCNC(=N)N)NC(=O)[C@@H]1CCCN1C(=O)[C@H](CCCCN)NC(=O)[C@H](CC(N)=O)NC(=O)[C@H](CCC(=O)O)NC(=O)[C@H](Cc1ccc(O)cc1)NC(=O)[C@H](CC(C)C)NC(=O)[C@@H](N)CCCCNC(=O)Cn1nnc2c1CC[C@H]1[C@@H](CC2)[C@H]1COC(=O)NCCOCCOCCNC(=O)CCCCC[N+]1=C(/C=C/C=C2/N(C)c3ccccc3C2(C)C)C(C)(C)c2ccccc21)C(=O)N[C@@H](CC(C)C)C(=O)O.[Cl-]", "values": [{"measurement": "Km", "setting": "Sortilin", "result": 80, "unit": "nM"}, {"measurement": "Vmax", "setting": "Sortilin", "result": 1397}, {"measurement": "Drug uptake", "setting": "[1]", "result": "Not Active"}]}, {"compound": "CC[C@H](C)[C@H](NC(=O)[C@H](Cc1ccc(O)cc1)NC(=O)[C@@H]1CCCN1C(=O)[C@H](CCCNC(=N)N)NC(=O)[C@H](CCCNC(=N)N)NC(=O)[C@@H]1CCCN1C(=O)[C@H](CCCCN)NC(=O)[C@H](CC(N)=O)NC(=O)[C@H](CCC(=O)O)NC(=O)[C@H](Cc1ccc(O)cc1)NC(=O)[C@H](CC(C)C)NC(=O)CNC(=O)[C@@H]1CCCN1C(=O)[C@H](CO)NC(=O)[C@H](CO)NC(=O)CNC(=O)[C@H](C)NC(=O)[C@@H]1CCCN1C(=O)[C@@H]1CCCN1C(=O)[C@@H]1CCCN1C(=O)[C@@H](N)CCCCNC(=O)Cn1nnc2c1CC[C@H]1[C@@H](CC2)[C@H]1COC(=O)NCCOCCOCCNC(=O)CCCCC[N+]1=C(/C=C/C=C2/N(C)c3ccccc3C2(C)C)C(C)(C)c2ccccc21)C(=O)N[C@@H](CC(C)C)C(=O)O.[Cl-]", "values": [{"measurement": "Vmax", "setting": "Sortilin", "result": 1367}]}]}
